From US9289430B2, “Compounds and methods for inhibiting phosphate transport” (Ardelyx, Inc., priority 2010, dated 2016)

What was measured:
[1] = Stability in simulated gastric and intestinal fluid; assay type: in vitro ADME; details: 6 hr, 1-20 μM; for % remaining, SGF: simulated gastric fluid with 3 mg/mL pepsin; for % remaining, SIF: simulated intestinal fluid with 3 mg/mL pancreatin
Description: Test compounds were incubated at 1-20 μM in simulated gastric fluid (SGF; standard USP solution with 3 mg/mL pepsin) or simulated intestinal fluid (SIF; standard USP solution with 3 mg/mL pancreatin) for 3 hr or 6 hr. HPLC-UV or HPLC-MS were used to determine test compound levels using peak area %. Results (Table 5) were reported as the percentage of test compound remaining after incubation in a given condition relative to test compound present at t=0 in the same condition.

[2] = Determination of compound Cmax and AUC after oral gavage; assay type: in vivo, Sprague-Dawley rats; details: Sprague-Dawley, rat plasma, nominal 10 mg/kg (actual 7.6-11 mg/kg), sampling 0.5-4 h
Description: Sprague-Dawley rats were orally gavaged with test article at a nominal dose of 2.5 or 10 mg/kg and blood was collected at 0.5, 1, 2 and 4 h. Blood samples were processed to plasma using K2EDTA as an anticoagulant. Plasma samples were treated with acetonitrile containing an internal standard, precipitated proteins removed by centrifugation. Supernatants were analyzed by LC-MS/MS and compound concentrations were determined by interpolated from a standard curve prepared in plasma. All compounds were orally dosed at the dosage shown, and pharmacokinetic parameters determined

NaPi2b = test: Competition with phosphate: uptake assay repeated at 2.1 vs 0.1 mM phosphate; assay type: cell-based; details: potency for inhibition of NaPi2b at 2.1 vs 0.1 mM phosphate
Description: In certain preferred embodiments, the phosphate transport inhibitors of the present invention are not competitive inhibitors with respect to phosphate of Na/phosphate co-transport. In certain other preferred embodiments, the phosphate transport inhibitors of the invention are non-competitive inhibitors. Non-competitive inhibitors maintain their degree of inhibition irrespective of the local phosphate concentration. This feature is an important aspect in providing an efficient blockade of intestinal transport in postprandial state, where the local concentration of dietary phosphate can attain concentration as high as 10 mM. It is believed that competitive inhibitors are too sensitive to local phosphate concentration and unable to block phosphate uptake following a high phosphorus meal. Various methods are available for determining whether a phosphate transport inhibitor is non-competitive or competitive. For example, a phosphate uptake assay can be performed and the IC50 values for a compound at different phosphate concentrations can be determined (e.g., “Enzyme kinetics”, I. Segel, 1975, John-Wiley & Sons, p. 123). IC50 values for non-competitive inhibitors will remain the same or similar with respect to the phosphate concentration, whereas IC50 values for competitive inhibitors will increase (i.e. lose potency) as phosphate concentration increases.
To ascertain if an inhibitor was competitive for binding with phosphate, the procedure was repeated, but raising the concentration of the substrate in the assay mixture from 0.1 to 2.1 mM phosphate.

[3] = tested on: Uptake of Phosphate from the Intestine; test: In vivo bolus phosphorus challenge; parameters: species or system Sprague-Dawley rats; details: rats on low-phosphorus diet, oral drug dose 30 (unit not given) 15 min before phosphate bolus, serum 30 min post bolus
Description: By pretreating animals with a low phosphorus diet followed by the subsequent dosing of a phosphorus bolus, serum phosphorus levels were monitored after 30 minutes as a surrogate for intestinal phosphorus absorption. […] The in vivo bolus phosphorus challenge model used here mimics this model in rats.
Male, 7-week-old Sprague-Dawley rats (Charles-River laboratories international, Hollister, Calif.) were allowed to acclimatize for a minimum of 3 days before switching to a synthetic low-phosphorus diet (TD.85010, Harlan Teklad, Madison, Wis.) which contains 0.1% phosphorus and 0.6% calcium. At day 5, testing compounds or vehicle alone (as indicated) were orally administered at the indicated dose in a volume of 5 ml/kg, followed by a bolus gavage of monobasic sodium phosphate (1 mmol in 1 ml) 15 min after compound dosing. Serum was collected via retroorbital bleeding 30 min post phosphate bolus and phosphate levels were determined utilizing an ACE ALERA blood chemistry analyzer (Alfa Wassermann Diagnostic Technologies, West Caldwell, N.J.).
The extent of inhibition by test compounds on the elevation of serum phosphate levels in response to the bolus of phosphate is shown in Table 3 (data are expressed as % Inhibition, with 6-10 animals per data point). The differences between groups were evaluated by one-way analysis of variance with Dunnett's post hoc tests.

[4] = tested on: Uptake of Phosphorus from the Intestine; test: In vivo co-dosing in chow, urinary P output relative to P consumed; parameters: species or system Sprague-Dawley rats; details: rats, compound in chow, nominal 100 mg/kg/day (mean actual 104-105 mg/kg/day), mean of 24-96 h, vs control
Description: Male, 7-week-old Sprague-Dawley rats (Charles-River laboratories international, Hollister, Calif.) were allowed to acclimate for a minimum of 3 days. The experiment was initiated by switching animals to a synthetic diet (0.6% phosphorus and 0.6% calcium, Harlan Teklad TD.84122) for four days. After this time, the animals were placed into metabolic cages for daily monitoring of food and water consumption, as well as urine and fecal collections. Test compounds were incorporated into the powdered diet listed above containing 3% chocolate flavoring (w/w, BioSery #7345) at 1.3 mg test compound per gram of diet to achieve an average daily nominal dose of 100 mg/kg/day. The actual dose received by each animal was later determined by measuring prepared diet consumption and body weight. Urine samples were collected in three daily periods from 24-48, 48-72, and 72-96 hours of drug dosing. […] Phosphorous levels in the urine were determined by anion exchange chromatography using a Dionex ICS-3000 ion chromatography system. […] Elution of urine phosphate ions was monitored via conductivity detector and reported as ppm relative to a standard ion solution containing phosphate. Daily urinary P output relative to the P consumed in the prepared diet for each animal was calculated. […] The differences between the means of control and treated groups were evaluated by t tests. […]

| Compound | % remaining, SGF [1] [%] | % remaining, SIF [1] [%] | AUC [2] [ng·h/mL] | Competitive with respect to Pi? (NaPi2b) | % Inhibition of Serum P elevation [3] [%] | Mean % inhibition Urine Pout/P consumed [4] [%] | Cmax [2] [ng/mL] |
| --- | --- | --- | --- | --- | --- | --- | --- |
| O=C(O)CCOCCOCCOCCNC(=O)Cc1cccc(SCc2cccc(C(=O)Nc3ccc(N4CCCCC4)cc3C(=O)Nc3ccn(-c4cccc(C(F)(F)F)c4)n3)c2)c1 [Example 26, 2-Oxo-1-(3-((3-((4-(piperidin-1-yl)-2-((1-(3-(trifluoromethyl)phenyl)-1H-pyrazol-3-yl)carbamoyl)phenyl)carbamoyl)benzyl)thio)phenyl)-6,9,12-trioxa-3-azapentadecan-15-oic acid] | 91 | 95 | < 3 | No | – | – | – |
| CN(CCN1CCOCC1)C(=O)c1cccc(C(=O)Nc2ccc(N3CCCCC3)cc2C(=O)Nc2ccn(-c3cccc(C(F)(F)F)c3)n2)c1 [Example 11, N1-Methyl-N1-(2-morpholinoethyl)-N3-(4-(piperidin-1-yl)-2-((1-(3-(trifluoromethyl)phenyl)-1H-pyrazol-3-yl)carbamoyl)phenyl)isophthalamide] | – | – | – | No | 30.0 | – | – |
| CN(CCN1CCOCC1)C(=O)c1cccc(C(=O)Nc2ccc(Cl)cc2C(=O)Nc2ccn(-c3cccc(C(F)(F)F)c3)n2)c1 [Example 14, N1-(4-Chloro-2-((1-(3-(trifluoromethyl)phenyl)-1H-pyrazol-3-yl)carbamoyl)phenyl)-N3-methyl-N3-(2-morpholinoethyl)isophthalamide 2,2,2-trifluoroacetate] | 93 | 72 | 788 | – | – | 12 | 487 |
